Results published in patent US8921267B2, “Safening 6-(trisubstituted phenyl)-4-amino-2-pyridinecarboxylate herbicide injury on cereal crops” (Dow AgroSciences LLC, priority 2008, dated 2014).

Experiments:
Assay type in all cases: in vivo
[1] = system: corn poppy (Papaver rhoeas L; PAPRH); assay: Postemergence herbicidal activity, greenhouse, visual injury: corn poppy
Procedure: (§1) Evaluation of Postemergence Herbicidal Safening in Cereal Crops
(§2) Seeds of the desired test plant species were planted in Sun Gro MetroMix® 306 planting mixture, which typically has a pH of 6.0 to 6.8 and an organic matter content of about 30 percent, in plastic pots with a surface area of 103.2 square centimeters (cm^2). When required to ensure good germination and healthy plants, a fungicide treatment and/or other chemical or physical treatment was applied. The plants were grown for 7-36 days (d) in a greenhouse with an approximate 14-hour (h) photoperiod which was maintained at about 18° C. during the day and 17° C. during the night. Nutrients and water were added on a regular basis and supplemental lighting was provided with overhead metal halide 1000-Watt lamps as necessary. The plants were employed for testing when they reached the second or third true leaf stage.
(§3) Weighed amounts of esters (methyl) or salts (TEA [triethylammonium], K [potassium]) of 4-amino-3-chloro-6-(4-chloro-2-fluoro-3-methoxyphenyl)pyridine-2-carboxylic acid (Compound 1) were dissolved in a volume of 97:3 volume/volume (v/v) acetone/dimethylsulfoxide (DMSO) to obtain stock solutions. […] The concentrated stock solutions were diluted with an aqueous mixture of 1.5% v/v of Agri-dex crop oil concentrate to provide the appropriate application rates. Compound requirements are based upon a 12 mL application volume at a rate of 187 liters per hectare (L/ha). Stocks solutions of the safeners were prepared following the same procedure. Spray solutions of the safeners and experimental compound mixtures were prepared by adding the stock solutions to the appropriate amount of dilution solution to form a 12 mL spray solution with active ingredients in two-way combinations. Formulated compounds were applied to the plant material with an overhead Mandel track sprayer equipped with 8002E nozzles calibrated to deliver 187 L/ha over an application area of 0.503 square meters (m^2) at a spray height of 18 inches (43 centimeters (cm)) above average plant canopy. Control plants were sprayed in the same manner with the solvent blank.
(§4) The treated plants and control plants were placed in a greenhouse as described above and watered by sub-irrigation to prevent wash-off of the test compounds. After 20-22 d, the condition of the test plants as compared with that of the control plants was determined visually and scored on a scale of 0 to 100 percent where 0 corresponds to no injury and 100 corresponds to complete kill.
(§5) Colby's equation was used to determine the herbicidal effects expected from the mixtures (Colby, S. R. Calculation of the synergistic and antagonistic response of herbicide combinations. Weeds 1967, 15, 20-22.).
(§6) The following equation was used to calculate the expected activity of mixtures containing two active ingredients, A and B: Expected=A+B−(A×B/100)
(§7) A=observed efficacy of active ingredient A at the same concentration as used in the mixture.
(§8) B=observed efficacy of active ingredient B at the same concentration as used in the mixture.

[2] = system: purple deadnettle (Lamium purpureum L; LAMPU); assay: Postemergence herbicidal activity, greenhouse, visual injury: purple deadnettle; parameters: key: visual injury, 0–100%: 0 = no injury, 100 = complete kill
Procedure: as §1, §2, §3, §4, §5, §6, §7, §8

[3] = system: wild buckwheat (Polygonum convolvulus L; POLCO); assay: Postemergence herbicidal activity, greenhouse, visual injury: wild buckwheat
Procedure: as §1, §2, §3, §4, §5, §6, §7, §8

[4] = system: Russian thistle (Salsola iberica L; SASKR); assay: Postemergence herbicidal activity, greenhouse, visual injury: Russian thistle; parameters: key: visual injury, 0–100%: 0 = no injury, 100 = complete kill
Procedure: as §1, §2, §3, §4, §5, §6, §7, §8

[5] = system: cleavers (Galium aparine L; GALAP); assay: Postemergence herbicidal activity, greenhouse, visual injury: cleavers; parameters: key: visual injury, 0–100%: 0 = no injury, 100 = complete kill
Procedure: as §1, §2, §3, §4, §5, §6, §7, §8

[6] = system: chickweed (Stellaria media L; STEME); assay: Postemergence herbicidal activity, greenhouse, visual injury: chickweed; parameters: key: visual injury, 0–100%: 0 = no injury, 100 = complete kill
Procedure: as §1, §2, §3, §4, §5, §6, §7, §8

[7] = system: wheat (Triticum aestivum L; TRZAS); assay: Postemergence herbicidal safening, greenhouse, visual injury: wheat
Procedure: as §1, §2, §3, §4, §5, §6, §7, §8

[8] = system: barley (Hordeum vulgare L; HORVS); assay: Postemergence herbicidal safening, greenhouse, visual injury: barley
Procedure: as §1, §2, §3, §4, §5, §6, §7, §8

[9] = system: wild pansy (Viola tricolor L; VIOTR); assay: Postemergence herbicidal activity, greenhouse, visual injury: wild pansy; parameters: key: visual injury, 0–100%: 0 = no injury, 100 = complete kill
Procedure: as §1, §2, §3, §4, §5, §6, §7, §8

[10] = system: bird's-eye speedwell (Veronica persica L; VERPE); assay: Postemergence herbicidal activity, greenhouse, visual injury: bird's-eye speedwell; parameters: key: visual injury, 0–100%: 0 = no injury, 100 = complete kill
Procedure: as §1, §2, §3, §4, §5, §6, §7, §8

Compound: O=C(O)c1nc(C(Cl)(Cl)Cl)n(-c2ccc(Cl)cc2Cl)n1 [Fenchlorazole]
- PAPRH Ob (Observed values) ([1]; safener 4.4 g/ha alone): 0
- PAPRH Ob (Observed values) ([1]; safener 8.8 g/ha alone): 0
- PAPRH Ob (Observed values) ([1]; safener 17.5 g/ha alone): 0
- PAPRH Ob (Observed values) ([1]; safener 35 g/ha alone): 0
- LAMPU Ob (Observed values) ([2]; safener 4.4 g/ha alone): 0
- LAMPU Ob (Observed values) ([2]; safener 8.8 g/ha alone): 0
- LAMPU Ob (Observed values) ([2]; safener 17.5 g/ha alone): 0
- LAMPU Ob (Observed values) ([2]; safener 35 g/ha alone): 0

Compound: Cc1ccc(NC(=O)NC(C)(C)c2ccccc2)cc1 [Daimuron]
- PAPRH Ob (Observed values) ([1]; safener 4.4 g/ha alone): 0
- PAPRH Ob (Observed values) ([1]; safener 8.8 g/ha alone): 0
- PAPRH Ob (Observed values) ([1]; safener 17.5 g/ha alone): 0
- PAPRH Ob (Observed values) ([1]; safener 35 g/ha alone): 0
- LAMPU Ob (Observed values) ([2]; safener 4.4 g/ha alone): 0
- LAMPU Ob (Observed values) ([2]; safener 8.8 g/ha alone): 0
- LAMPU Ob (Observed values) ([2]; safener 17.5 g/ha alone): 0
- LAMPU Ob (Observed values) ([2]; safener 35 g/ha alone): 0

Compound: O=C(C(Cl)Cl)N1CCOC12CCCCC2 [AD67, 4-(dichloroacetyl)-1-oxa-4-azaspiro[4,5]decane, reference compound]
- POLCO Ob ([3]; applied alone at 17.5 g/ha): 0%
- POLCO Ob ([3]; applied alone at 35 g/ha): 0%
- POLCO Ob ([3]; applied alone at 70 g/ha): 0%
- POLCO Ob ([3]; applied alone at 140 g/ha): 0%
- SASKR Ob ([4]; applied alone at 17.5 g/ha): 0%
- SASKR Ob ([4]; applied alone at 35 g/ha): 0%
- SASKR Ob ([4]; applied alone at 70 g/ha): 0%
- SASKR Ob ([4]; applied alone at 140 g/ha): 0%
- GALAP Ob ([5]; applied alone at 17.5 g/ha): 0%
- GALAP Ob ([5]; applied alone at 35 g/ha): 0%
- GALAP Ob ([5]; applied alone at 70 g/ha): 0%
- GALAP Ob ([5]; applied alone at 140 g/ha): 0%
- PAPRH Ob ([1]; applied alone at 17.5 g/ha): 0%
- PAPRH Ob ([1]; applied alone at 35 g/ha): 0%
- PAPRH Ob ([1]; applied alone at 70 g/ha): 0%
- PAPRH Ob ([1]; applied alone at 140 g/ha): 0%
- STEME Ob ([6]; applied alone at 17.5 g/ha): 0%
- STEME Ob ([6]; applied alone at 35 g/ha): 0%
- STEME Ob ([6]; applied alone at 70 g/ha): 0%
- STEME Ob ([6]; applied alone at 140 g/ha): 0%
- TRZAS Ob ([7]; applied alone at 17.5 g/ha): 0%
- TRZAS Ob ([7]; applied alone at 35 g/ha): 0%
- TRZAS Ob ([7]; applied alone at 70 g/ha): 0%
- TRZAS Ob ([7]; applied alone at 140 g/ha): 0%
- HORVS Ob ([8]; applied alone at 17.5 g/ha): 0%
- HORVS Ob ([8]; applied alone at 35 g/ha): 0%
- HORVS Ob ([8]; applied alone at 70 g/ha): 0%
- HORVS Ob ([8]; applied alone at 140 g/ha): 0%
- VIOTR Ob ([9]; applied alone at 17.5 g/ha): 0%
- VIOTR Ob ([9]; applied alone at 35 g/ha): 0%
- VIOTR Ob ([9]; applied alone at 70 g/ha): 0%
- VIOTR Ob ([9]; applied alone at 140 g/ha): 0%
- VERPE Ob ([10]; applied alone at 17.5 g/ha): 0%
- VERPE Ob ([10]; applied alone at 35 g/ha): 0%
- VERPE Ob ([10]; applied alone at 70 g/ha): 0%
- VERPE Ob ([10]; applied alone at 140 g/ha): 0%

Compound: FC(F)(F)C(=NOCC1OCCO1)c1ccc(Cl)cc1 [Fluxofenim]
- POLCO Ob ([3]; applied alone, 17.5 g/ha): 0
- POLCO Ob ([3]; applied alone, 35 g/ha): 0
- POLCO Ob ([3]; applied alone, 70 g/ha): 0
- POLCO Ob ([3]; applied alone, 140 g/ha): 0
- SASKR Ob ([4]; applied alone, 17.5 g/ha): 0
- SASKR Ob ([4]; applied alone, 35 g/ha): 0
- SASKR Ob ([4]; applied alone, 70 g/ha): 0
- SASKR Ob ([4]; applied alone, 140 g/ha): 0
- GALAP Ob ([5]; applied alone, 17.5 g/ha): 0
- GALAP Ob ([5]; applied alone, 35 g/ha): 0
- GALAP Ob ([5]; applied alone, 70 g/ha): 0
- GALAP Ob ([5]; applied alone, 140 g/ha): 0
- PAPRH Ob ([1]; applied alone, 17.5 g/ha): 0
- PAPRH Ob ([1]; applied alone, 35 g/ha): 0
- PAPRH Ob ([1]; applied alone, 70 g/ha): 0
- PAPRH Ob ([1]; applied alone, 140 g/ha): 0
- STEME Ob ([6]; applied alone, 17.5 g/ha): 0
- STEME Ob ([6]; applied alone, 35 g/ha): 0
- STEME Ob ([6]; applied alone, 70 g/ha): 0
- STEME Ob ([6]; applied alone, 140 g/ha): 0
- TRZAS Ob ([7]; applied alone, 17.5 g/ha): 0%
- TRZAS Ob ([7]; applied alone, 35 g/ha): 0%
- TRZAS Ob ([7]; applied alone, 70 g/ha): 0%
- TRZAS Ob ([7]; applied alone, 140 g/ha): 0%
- HORVS Ob ([8]; applied alone, 17.5 g/ha): 0%
- HORVS Ob ([8]; applied alone, 35 g/ha): 0%
- HORVS Ob ([8]; applied alone, 70 g/ha): 0%
- HORVS Ob ([8]; applied alone, 140 g/ha): 0%
- VIOTR Ob ([9]; applied alone, 17.5 g/ha): 0
- VIOTR Ob ([9]; applied alone, 35 g/ha): 0
- VIOTR Ob ([9]; applied alone, 70 g/ha): 0
- VIOTR Ob ([9]; applied alone, 140 g/ha): 0
- VERPE Ob ([10]; applied alone, 17.5 g/ha): 0
- VERPE Ob ([10]; applied alone, 35 g/ha): 0
- VERPE Ob ([10]; applied alone, 70 g/ha): 0
- VERPE Ob ([10]; applied alone, 140 g/ha): 0
